From patent US20040192888A1, “Method of preparing peptide with high yield and high purity using2-(4-nitrophenylsulfonyl) ethoxycarbonyl-amino acids” (priority 2001, published 2004)

Experiment: Dissolution comparison of Nα-Nsc-amino acids and Nα-Fmoc-amino acids
Assay type: physicochemical
Design: key: ◯: dissolution; Δ: partial dissolution; X: no dissolution
Settings: for Dissolved state, Fmoc, column B / Dissolved state, Fmoc, column A / Dissolved state, Fmoc, column D / Dissolved state, Fmoc, column C: Fmoc-amino acid; for Dissolved state, Fmoc, column B / Dissolved state, Fmoc, column A / Dissolved state, Nsc, column B / Dissolved state, Nsc, column A: 100 mg in 1 ml dichloromethane; for Dissolved state, Fmoc, column B / Dissolved state, Fmoc, column D / Dissolved state, Nsc, column B / Dissolved state, Nsc, column D: heated at 40° C. for 5 minutes, then room temperature 5 minutes; for Dissolved state, Fmoc, column A / Dissolved state, Fmoc, column C / Dissolved state, Nsc, column A / Dissolved state, Nsc, column C: stirring 5 minutes; for Dissolved state, Fmoc, column D / Dissolved state, Fmoc, column C / Dissolved state, Nsc, column D / Dissolved state, Nsc, column C: 15% DMF/DCM; for Dissolved state, Nsc, column B / Dissolved state, Nsc, column A / Dissolved state, Nsc, column D / Dissolved state, Nsc, column C: Nsc-amino acid
Experimental: Since only amino acids fully dissolved in a solvent can be used in acylation reactions, the following tests were performed to find solvent conditions in which amino acids can be completely dissolved.
100 mg of each of Nα-Nsc-amino acids and Nα-Fmoc-amino acids shown in Table 1, below, were precisely weighed and added to two containers added with 1 ml of dichloromethane (hereinafter, referred to as “DCM”), followed by stirring for 5 minutes. The dissolved states of amino acids were observed and are expressed in column A of the following Table 1.
Other amino acids, exclusive of totally dissolved amino acids, were heated in an oven at 40° C. for 5 minutes, and allowed to stand at room temperature for 5 minutes. Their dissolved states are shown in column B.
As such, the undissolved amino acids were dissolved in 15% dimethylformamide (hereinafter, referred to as “DMF”)/DCM in the same manner as in the case of the above column A, and their dissolved states are presented in column C.
Still undissolved amino acids were heated in an oven at 40° C. for 5 minutes, and allowed to stand at room temperature for 5 minutes. Their dissolved states were observed and are shown in column D.

| SMILES | Dissolved state, Fmoc, column B | Dissolved state, Fmoc, column A | Dissolved state, Fmoc, column D | Dissolved state, Fmoc, column C | Dissolved state, Nsc, column B | Dissolved state, Nsc, column A | Dissolved state, Nsc, column D | Dissolved state, Nsc, column C |
| --- | --- | --- | --- | --- | --- | --- | --- | --- |
| C[C@H](NC(=O)OCC1c2ccccc2-c2ccccc21)C(=O)O [Fmoc-Ala, reference compound] | X | X | ◯ | Δ |  |  |  |  |
| NC(=O)CC[C@H](NC(=O)OCC1c2ccccc2-c2ccccc21)C(=O)O [Fmoc-Gln, reference compound] | ◯ | ◯ | ◯ | ◯ |  |  |  |  |
| O=C(O)CNC(=O)OCC1c2ccccc2-c2ccccc21 [Fmoc-Gly, reference compound] | X | X | ◯ | Δ |  |  |  |  |
| CC[C@H](C)[C@H](NC(=O)OCC1c2ccccc2-c2ccccc21)C(=O)O [Fmoc-Iie, reference compound] | Δ | Δ | ◯ | ◯ |  |  |  |  |
| CC(C)C[C@@H](NC(=O)OCC1c2ccccc2-c2ccccc21)C(=O)O [Fmoc-Leu, reference compound] | ◯ | Δ | ◯ | ◯ |  |  |  |  |
| CSCC[C@H](NC(=O)OCC1c2ccccc2-c2ccccc21)C(=O)O [Fmoc-Met, reference compound] | ◯ | X | ◯ | ◯ |  |  |  |  |
| O=C(N[C@@H](Cc1ccccc1)C(=O)O)OCC1c2ccccc2-c2ccccc21 [Fmoc-Phe, reference compound] | X | X | ◯ | Δ |  |  |  |  |
| O=C(O)[C@@H]1CCCN1C(=O)OCC1c2ccccc2-c2ccccc21 [Fmoc-Pro, reference compound] | ◯ | ◯ | ◯ | ◯ |  |  |  |  |
| CC(C)(C)OCC(NC(=O)OCC1c2ccccc2-c2ccccc21)C(=O)O (stereo not drawn) [Fmoc-Ser, reference compound] | ◯ | ◯ | ◯ | ◯ |  |  |  |  |
| CC(OC(C)(C)C)C(NC(=O)OCC1c2ccccc2-c2ccccc21)C(=O)O (stereo not drawn) [Fmoc-Thr, reference compound] | ◯ | ◯ | ◯ | ◯ |  |  |  |  |
| CC(C)(C)Oc1ccc(CC(NC(=O)OCC2c3ccccc3-c3ccccc32)C(=O)O)cc1 (stereo not drawn) [Fmoc-Tyr, reference compound] | ◯ | Δ | ◯ | ◯ |  |  |  |  |
| Cc1c(C)c(S(=O)(=O)N=C(N)NCCCC(NC(=O)OCCS(=O)(=O)c2ccc([N+](=O)[O-])cc2)C(=O)O)c(C)c2c1OC(C)(C)C2 (stereo not drawn) [Nsc-Arg] |  |  |  |  | ◯ | ◯ | ◯ | ◯ |
| CC(C)(C)OC(=O)CCC(NC(=O)OCCS(=O)(=O)c1ccc([N+](=O)[O-])cc1)C(=O)O (stereo not drawn) [Nsc-Glu] |  |  |  |  | ◯ | ◯ | ◯ | ◯ |
| O=C(O)CNC(=O)OCCS(=O)(=O)c1ccc([N+](=O)[O-])cc1 [Nsc-Gly] |  |  |  |  | X | X | ◯ | Δ |
| CC[C@H](C)[C@H](NC(=O)OCCS(=O)(=O)c1ccc([N+](=O)[O-])cc1)C(=O)O [Nsc-Iie] |  |  |  |  | ◯ | Δ | ◯ | ◯ |
| CC(C)CC(NC(=O)OCCS(=O)(=O)c1ccc([N+](=O)[O-])cc1)C(=O)O (stereo not drawn) [Nsc-Leu] |  |  |  |  | X | X | ◯ | Δ |
| CSCC[C@H](NC(=O)OCCS(=O)(=O)c1ccc([N+](=O)[O-])cc1)C(=O)O [Nsc-Met] |  |  |  |  | ◯ | Δ | ◯ | ◯ |
| O=C(N[C@@H](Cc1ccccc1)C(=O)O)OCCS(=O)(=O)c1ccc([N+](=O)[O-])cc1 [Nsc-Phe] |  |  |  |  | X | X | ◯ | ◯ |
| O=C(O)[C@@H]1CCCN1C(=O)OCCS(=O)(=O)c1ccc([N+](=O)[O-])cc1 [Nsc-Pro] |  |  |  |  | ◯ | ◯ | ◯ | ◯ |
| CC(C)(C)OCC(NC(=O)OCCS(=O)(=O)c1ccc([N+](=O)[O-])cc1)C(=O)O (stereo not drawn) [Nsc-Ser] |  |  |  |  | ◯ | ◯ | ◯ | ◯ |
| O=C(N[C@@H](Cc1c[nH]c2ccccc12)C(=O)O)OCCS(=O)(=O)c1ccc([N+](=O)[O-])cc1 [Nsc-Trp] |  |  |  |  | X | X | ◯ | Δ |
| CC(C)(C)Oc1ccc(CC(NC(=O)OCCS(=O)(=O)c2ccc([N+](=O)[O-])cc2)C(=O)O)cc1 (stereo not drawn) [Nsc-Tyr] |  |  |  |  | ◯ | ◯ | ◯ | ◯ |
| CC(C)C(NC(=O)OCCS(=O)(=O)c1ccc([N+](=O)[O-])cc1)C(=O)O (stereo not drawn) [Nsc-Val] |  |  |  |  | ◯ | ◯ | ◯ | ◯ |

Results, then the compound that gave them:

| Dissolved state, Fmoc, column B | Dissolved state, Fmoc, column A | Dissolved state, Fmoc, column D | Dissolved state, Fmoc, column C | Dissolved state, Nsc, column B | Dissolved state, Nsc, column A | Dissolved state, Nsc, column D | Dissolved state, Nsc, column C | SMILES |
| --- | --- | --- | --- | --- | --- | --- | --- | --- |
| X | X | ◯ | Δ |  |  |  |  | CC(=O)NCSCC(NC(=O)OCC1c2ccccc2-c2ccccc21)C(=O)O (stereo not drawn) [Fmoc-Cys, reference compound] |
| ◯ | ◯ | ◯ | ◯ |  |  |  |  | O=C(NC(Cc1cn(C(c2ccccc2)(c2ccccc2)c2ccccc2)cn1)C(=O)O)OCC1c2ccccc2-c2ccccc21 (stereo not drawn) [Fmoc-His, reference compound] |
| ◯ | ◯ | ◯ | ◯ |  |  |  |  | CC(C)(C)OC(=O)NCCCCC(NC(=O)OCC1c2ccccc2-c2ccccc21)C(=O)O (stereo not drawn) [Fmoc-Lys, reference compound] |
| X | X | ◯ | ◯ |  |  |  |  | O=C(NC(Cc1c[nH]c2ccccc12)C(=O)O)OCC1c2ccccc2-c2ccccc21 (stereo not drawn) [Fmoc-Trp, reference compound] |
| X | X | ◯ | ◯ |  |  |  |  | CC(C)[C@H](NC(=O)OCC1c2ccccc2-c2ccccc21)C(=O)O [Fmoc-Val, reference compound] |
|  |  |  |  | X | X | ◯ | ◯ | C[C@H](NC(=O)OCCS(=O)(=O)c1ccc([N+](=O)[O-])cc1)C(=O)O [Nsc-Ala] |
|  |  |  |  | X | X | ◯ | ◯ | O=C(CC(NC(=O)OCCS(=O)(=O)c1ccc([N+](=O)[O-])cc1)C(=O)O)NC(c1ccccc1)(c1ccccc1)c1ccccc1 (stereo not drawn) [Nsc-Asn] |
|  |  |  |  | ◯ | Δ | ◯ | ◯ | O=C(NC(Cc1cn(C(c2ccccc2)(c2ccccc2)c2ccccc2)cn1)C(=O)O)OCCS(=O)(=O)c1ccc([N+](=O)[O-])cc1 (stereo not drawn) [Nsc-His] |
|  |  |  |  | ◯ | ◯ | ◯ | ◯ | CC(C)(C)OC(=O)NCCCCC(NC(=O)OCCS(=O)(=O)c1ccc([N+](=O)[O-])cc1)C(=O)O (stereo not drawn) [Nsc-Lys] |
|  |  |  |  | ◯ | ◯ | ◯ | ◯ | CC(OC(C)(C)C)C(NC(=O)OCCS(=O)(=O)c1ccc([N+](=O)[O-])cc1)C(=O)O (stereo not drawn) [Nsc-Thr] |
